Reference: patent publication US20190290675A1, “GLYCAN POLYMERS AND RELATED METHODS THEREOF” (priority 2016, published 2019)

Tests used:
Test in all cases: single strain growth assay, enzymatically synthesized glycans and parent sugars
Assay type in all cases: cell-based
Settings in all cases: 0.5% w/v, 37° C., 18-48 hours, anaerobic; OD600 blanked against no glycan or sugar
[1] = tested on: Dorea formicigenerans ATCC 27755 “DFO.36”
Experimental: (§1) An in vitro assay was performed to assess the ability of various bacterial strains, including commensals and pathogens of the gastrointestinal tract, to utilize enzymatically synthesized glycans (i.e., glycan polymers) and the sugars from which they were derived as growth substrates. The assay was designed to determine if enzymatically synthesized glycans differ from the sugars from which they are derived in how well they support growth of potentially beneficial or harmful bacterial members of the human microbiome. Bacterial strains were handled at all steps in an anaerobic chamber (AS-580, Anaerobe Systems) featuring a palladium catalyst. The chamber was initially made anaerobic by purging with an anaerobic gas mixture of 5% hydrogen, 5% carbon dioxide and 90% nitrogen and subsequently maintained in an anaerobic state using this same anaerobic gas mixture. Anaerobicity of the chamber was confirmed daily using Oxoid anaerobic indicator strips that change color in the presence of oxygen. All culture media, assay plates, other reagents and plastic consumables were pre-reduced in the anaerobic chamber for at least 24-48 hours prior to contact with bacteria. […] Bacterial isolates were obtained from the American Type Culture Collection (ATCC) and Leibniz Institute DSMZ-German Institute of Microorganisms and Cell Cultures (DSMZ). […] Inocula were prepared by determining the optical density of each culture at 600 nM (OD600) in a Costar 3370 polystyrene 96-well flat-bottom assay plate using a Biotek Synergy 2 plate reader with Gen5 2.0 All-In-One Microplate Reader Software according to manufacturer's protocol, and diluting the cells to OD600 0.01 final in defined and semi-defined media that were prepared without sugars. […]

[2] = tested on: Clostridium scindens ATCC 35704 “CSC.32”
Experimental: as §1

[3] = tested on: Parabacteroides distasonis ATCC 8503 “PDI.6”
Experimental: as §1

[4] = tested on: Bacteroides thetaiotaomicron ATCC 29741 “BTH.8”
Experimental: as §1

[5] = tested on: Dorea longicatena DSM 13814 “DLO.76”
Experimental: as §1

[6] = tested on: Blautia hansenii ATCC 27752 “BHA.20”
Experimental: An in vitro assay was performed to assess the ability of various bacterial strains, including commensals and pathogens of the gastrointestinal tract, to utilize enzymatically synthesized glycans (i.e., glycan polymers) and the sugars from which they were derived as growth substrates. The assay was designed to determine if enzymatically synthesized glycans differ from the sugars from which they are derived in how well they support growth of potentially beneficial or harmful bacterial members of the human microbiome. Bacterial strains were handled at all steps in an anaerobic chamber (AS-580, Anaerobe Systems) featuring a palladium catalyst. The chamber was initially made anaerobic by purging with an anaerobic gas mixture of 5% hydrogen, 5% carbon dioxide and 90% nitrogen and subsequently maintained in an anaerobic state using this same anaerobic gas mixture. Anaerobicity of the chamber was confirmed daily using Oxoid anaerobic indicator strips that change color in the presence of oxygen. All culture media, assay plates, other reagents and plastic consumables were pre-reduced in the anaerobic chamber for at least 24-48 hours prior to contact with bacteria. […] Inocula were prepared by determining the optical density of each culture at 600 nM (OD600) in a Costar 3370 polystyrene 96-well flat-bottom assay plate using a Biotek Synergy 2 plate reader with Gen5 2.0 All-In-One Microplate Reader Software according to manufacturer's protocol, and diluting the cells to OD600 0.01 final in defined and semi-defined media that were prepared without sugars. […]

| SMILES | Growth, DFO.36 [1] | Growth, CSC.32 [2] | Growth, PDI.6 [3] | Growth, BTH.8 [4] | Growth, DLO.76 [5] | Growth, BHA.20 [6] |
| --- | --- | --- | --- | --- | --- | --- |
| OC[C@H]1O[C@@H](O[C@@H]2[C@@H](CO)OC(O)(CO)[C@H]2O)[C@H](O)[C@@H](O)[C@H]1O (mixture of isomers) [lactulose] | − (<0.1) | − (<0.1) | ++ (0.3-0.7) | + (0.1-0.3) | − (<0.1) | +++ (>0.7) |
| OC[C@H]1O[C@H](OC[C@H]2O[C@H](O[C@]3(CO)O[C@H](CO)[C@@H](O)[C@@H]3O)[C@H](O)[C@@H](O)[C@@H]2O)[C@H](O)[C@@H](O)[C@H]1O [raffinose] | − (<0.1) | − (<0.1) | +++ (>0.7) | − (<0.1) | − (<0.1) | ++ (0.3-0.7) |
| OC[C@H]1O[C@@](CO)(O[C@H]2O[C@H](CO)[C@@H](O)[C@H](O)[C@H]2O)[C@@H](O)[C@@H]1O [sucrose] | − (<0.1) | − (<0.1) | ++ (0.3-0.7) | +++ (>0.7) | +++ (>0.7) | − (<0.1) |
